Results: US6518243B1, “Desleucyl glycopeptide antibiotics and methods of making same” (Trustees of Princeton University, priority 1999, dated 2003)

What was measured:
E. faceium (ATCC 49624) = test: Zone of inhibition screen, 96 well agar array format;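 further: score 3 means fourfold and score 4 sixteenfold the reference zone size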; format: cell-based, E. faecium
Procedure: The antibacterial activity of each of the compounds against the bacterial strains E. faceium (ATCC 49624), S. epidermidis (ATCC 12228), S. aureus (ATCC 29213), E. faecalis (CL 4877) and E. faecalis (ATCC 292121) was tested. Each of the compounds was screened in a 96 will agar array format.

S. aureus (ATCC 29213) = test: as above; format: cell-based; set-up: scale not given here
Outline: (§1)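 Each compound was tested for antibacterial activity against a shared bacterial panel, with screening carried out on agar in a 96-well array.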

[1] = tested on: S. epidermidis (ATCC 12228); test: as above; format: cell-based; set-up: scale not given here
Outline: as §1

E. faecalis (CL 4877) = test: as above; format: cell-based; set-up: scale not given here
Outline: as §1

E. faecium ATCC 49624 = test: MIC determination in BHI media, OD600; format: cell-based; conditions: BHI + 0.1% casamino acids, 18 hours at 37° C., ≧90% OD600 inhibition
Procedure: (§2) Logarithmically growing cells were diluted to approximately 5×10^5 CFU/ml and subjected to test compounds solubilized and serially diluted in DMSO. […] After 18 hours at 37° C., the OD600 was determined by reading the ninety-six well microtiter plates on a microplate reader. For a given concentration, an MIC determination was made if: […]

E. faecium CL 4931 = test: MIC determination in BHI media, OD600; format: cell-based; conditions: BHI + 0.1% casamino acids, 18 hours at 37° C., ≧90% OD600 inhibition
Procedure: as §2

S. Aureus ATCC 33591 = test: MIC determination in BHI media, OD600; format: cell-based; conditions: BHI + 0.1% casamino acids, 18 hours at 37° C., ≧90% OD600 inhibition
Procedure: as §2

S aureus ATCC 29213 = test: MIC determination in BHI media, OD600; format: cell-based; conditions: BHI + 0.1% casamino acids, 18 hours at 37° C., ≧90% OD600 inhibition
Procedure: as §2

[2] = zone of inhibition relative to 1 mg/ml stock solution of p-chlorobiphenylvancomycin
[3] = zone of inhibition relative to 1 mg/ml p-chlorobiphenylvancomycin

CC(=O)NCSC(C)(C)C(N)C(=O)NC1C(=O)NC(CC(N)=O)C(=O)NC2C(=O)NC3C(=O)NC(C(=O)NC(C(=O)O)c4cc(O)cc(O)c4-c4cc3ccc4O)C(O)c3ccc(c(Cl)c3)Oc3cc2cc(c3OC2OC(CO)C(O)C(O)C2OC2CC(C)(NCc3ccc(-c4ccc(Cl)cc4)cc3)C(O)C(C)O2)Oc2ccc(cc2Cl)C1O (stereo not drawn) [Compound 84]
zone score, E. faecium ATCC 49624 (E. faceium (ATCC 49624); [2]): 2 | zone score, S. aureus ATCC 29213 (S. aureus (ATCC 29213); [2]): 2 | zone score, S. epidermidis ATCC 12228 [1, 2]: 2

CC1OC(OC2C(Oc3c4cc5cc3Oc3ccc(cc3Cl)C(O)C3NC(=O)C(NC(=O)C5NC(=O)C(CC(N)=O)NC(=O)C(NC(=O)C(CC[S+](C)[O-])NC(=O)OC(C)(C)C)C(O)c5ccc(c(Cl)c5)O4)c4ccc(O)c(c4)-c4c(O)cc(O)cc4C(C(=O)O)NC3=O)OC(CO)C(O)C2O)CC(C)(NCc2ccc(-c3ccc(Cl)cc3)cc2)C1O (stereo not drawn) [Compound 142]
zone score, E. faecium ATCC 49624 (E. faceium (ATCC 49624); [2]): 2 | zone score, E. faecalis CL 4877 (E. faecalis (CL 4877); [2]): 2 | zone score, S. aureus ATCC 29213 (S. aureus (ATCC 29213); [2]): 2

CC1OC(OC2C(Oc3c4cc5cc3Oc3ccc(cc3Cl)C(O)C3NC(=O)C(NC(=O)C5NC(=O)C(CC(N)=O)NC(=O)C(NC(=O)C(CC(N)=O)NC(=O)OC(C)(C)C)C(O)c5ccc(c(Cl)c5)O4)c4ccc(O)c(c4)-c4c(O)cc(O)cc4C(C(=O)O)NC3=O)OC(CO)C(O)C2O)CC(C)(NCc2ccc(-c3ccc(Cl)cc3)cc2)C1O (stereo not drawn) [Compound 135]
zone score, S. aureus ATCC 29213 (S. aureus (ATCC 29213); [2]): 2 | zone score, S. epidermidis ATCC 12228 [1, 2]: 2 | MIC E. faecium ATCC 49624 (E. faecium ATCC 49624): 0.39 µg/mL | MIC E. faecium CL 4931 (E. faecium CL 4931): > 25 µg/mL

CC1OC(OC2C(Oc3c4cc5cc3Oc3ccc(cc3Cl)C(O)C3NC(=O)C(NC(=O)C5NC(=O)C(CC(N)=O)NC(=O)C(NC(=O)CNC(=O)C5CCCN5)C(O)c5ccc(c(Cl)c5)O4)c4ccc(O)c(c4)-c4c(O)cc(O)cc4C(C(=O)O)NC3=O)OC(CO)C(O)C2O)CC(C)(NCc2ccc(-c3ccc(Cl)cc3)cc2)C1O (stereo not drawn) [Compound 85]
zone score, E. faecium ATCC 49624 (E. faceium (ATCC 49624); [2]): 2 | zone score, E. faecalis CL 4877 (E. faecalis (CL 4877); [2]): 2 | zone score, S. aureus ATCC 29213 (S. aureus (ATCC 29213); [2]): 2 | zone score, S. epidermidis ATCC 12228 [1, 2]: 2

CNC(COC(C)(C)C)C(=O)NC1C(=O)NC(CC(N)=O)C(=O)NC2C(=O)NC3C(=O)NC(C(=O)NC(C(=O)O)c4cc(O)cc(O)c4-c4cc3ccc4O)C(O)c3ccc(c(Cl)c3)Oc3cc2cc(c3OC2OC(CO)C(O)C(O)C2OC2CC(C)(NCc3ccc(-c4ccc(Cl)cc4)cc3)C(O)C(C)O2)Oc2ccc(cc2Cl)C1O (stereo not drawn) [Compound 343]
MIC E. faecium ATCC 49624 (E. faecium ATCC 49624): 0.39 µg/mL | MIC E. faecium CL 4931 (E. faecium CL 4931): 25 µg/mL | MIC S. aureus ATCC 33591 (S. Aureus ATCC 33591): 0.78 µg/mL

CC1OC(OC2C(Oc3c4cc5cc3Oc3ccc(cc3Cl)C(O)C3NC(=O)C(NC(=O)C5NC(=O)C(CC(N)=O)NC(=O)C(NC(=O)CN5CCN(CCN)CC5)C(O)c5ccc(c(Cl)c5)O4)c4ccc(O)c(c4)-c4c(O)cc(O)cc4C(C(=O)O)NC3=O)OC(CO)C(O)C2O)CC(C)(NCc2ccc(-c3ccc(Cl)cc3)cc2)C1O (stereo not drawn) [Compound 33]
zone score, E. faecium ATCC 49624 (E. faceium (ATCC 49624); [2]): 2 | zone score, E. faecalis CL 4877 (E. faecalis (CL 4877); [2]): 2 | zone score, S. aureus ATCC 29213 (S. aureus (ATCC 29213); [2]): 2

CC1OC(OC2C(Oc3c4cc5cc3Oc3ccc(cc3Cl)C(O)C3NC(=O)C(NC(=O)C5NC(=O)C(CC(N)=O)NC(=O)C(NC(=O)CC(O)C[N+](C)(C)C)C(O)c5ccc(c(Cl)c5)O4)c4ccc(O)c(c4)-c4c(O)cc(O)cc4C(C(=O)O)NC3=O)OC(CO)C(O)C2O)CC(C)(NCc2ccc(-c3ccc(Cl)cc3)cc2)C1O (mixture of isomers) [Compound 151]
zone score, E. faecium ATCC 49624 (E. faceium (ATCC 49624); [2]): 2 | zone score, E. faecalis CL 4877 (E. faecalis (CL 4877); [2]): 2 | zone score, S. epidermidis ATCC 12228 [1, 2]: 2

CC(=O)NCCCCC(N)C(=O)NC1C(=O)NC(CC(N)=O)C(=O)NC2C(=O)NC3C(=O)NC(C(=O)NC(C(=O)O)c4cc(O)cc(O)c4-c4cc3ccc4O)C(O)c3ccc(c(Cl)c3)Oc3cc2cc(c3OC2OC(CO)C(O)C(O)C2OC2CC(C)(NCc3ccc(-c4ccc(Cl)cc4)cc3)C(O)C(C)O2)Oc2ccc(cc2Cl)C1O (stereo not drawn) [Compound 76]
zone score, E. faecium ATCC 49624 (E. faceium (ATCC 49624); [2]): 2 | zone score, S. epidermidis ATCC 12228 [1, 2]: 2

CC1OC(OC2C(Oc3c4cc5cc3Oc3ccc(cc3Cl)C(O)C3NC(=O)C(NC(=O)C5NC(=O)C(CC(N)=O)NC(=O)C(NC(=O)C5CC(O)CN5)C(O)c5ccc(c(Cl)c5)O4)c4ccc(O)c(c4)-c4c(O)cc(O)cc4C(C(=O)O)NC3=O)OC(CO)C(O)C2O)CC(C)(NCc2ccc(-c3ccc(Cl)cc3)cc2)C1O (stereo not drawn) [Compound 72]
zone score, E. faecium ATCC 49624 (E. faceium (ATCC 49624); [2]): 2 | zone score, E. faecalis CL 4877 (E. faecalis (CL 4877); [2]): 2 | zone score, S. epidermidis ATCC 12228 [1, 2]: 2

COCC(=O)NC1C(=O)NC(CC(N)=O)C(=O)NC2C(=O)NC3C(=O)NC(C(=O)NC(C(=O)O)c4cc(O)cc(O)c4-c4cc3ccc4O)C(O)c3ccc(c(Cl)c3)Oc3cc2cc(c3OC2OC(CO)C(O)C(O)C2OC2CC(C)(NCc3ccc(-c4ccc(Cl)cc4)cc3)C(O)C(C)O2)Oc2ccc(cc2Cl)C1O (stereo not drawn) [Compound 303]
zone score, S. epidermidis ATCC 12228 [1, 3]: 2 | MIC E. faecium CL 4931 (E. faecium CL 4931): 25 µg/mL

CCOCC(=O)NC1C(=O)NC(CC(N)=O)C(=O)NC2C(=O)NC3C(=O)NC(C(=O)NC(C(=O)O)c4cc(O)cc(O)c4-c4cc3ccc4O)C(O)c3ccc(c(Cl)c3)Oc3cc2cc(c3OC2OC(CO)C(O)C(O)C2OC2CC(C)(NCc3ccc(-c4ccc(Cl)cc4)cc3)C(O)C(C)O2)Oc2ccc(cc2Cl)C1O (stereo not drawn) [Compound 287]
zone score, E. faecalis CL 4877 (E. faecalis (CL 4877); [3]): 2 | zone score, S. aureus ATCC 29213 (S. aureus (ATCC 29213); [3]): 2 | zone score, S. epidermidis ATCC 12228 [1, 3]: 2 | MIC E. faecium CL 4931 (E. faecium CL 4931): 25 µg/mL

CC1OC(OC2C(Oc3c4cc5cc3Oc3ccc(cc3Cl)C(O)C3NC(=O)C(NC(=O)C5NC(=O)C(CC(N)=O)NC(=O)C(NC(=O)Cn5cccc(N)c5=O)C(O)c5ccc(c(Cl)c5)O4)c4ccc(O)c(c4)-c4c(O)cc(O)cc4C(C(=O)O)NC3=O)OC(CO)C(O)C2O)CC(C)(NCc2ccc(-c3ccc(Cl)cc3)cc2)C1O (stereo not drawn) [Compound 32]
zone score, E. faecium ATCC 49624 (E. faceium (ATCC 49624); [2]): 2 | zone score, E. faecalis CL 4877 (E. faecalis (CL 4877); [2]): 2 | zone score, S. aureus ATCC 29213 (S. aureus (ATCC 29213); [2]): 2

CC(=O)c1ccc(C(=O)NC2C(=O)NC(CC(N)=O)C(=O)NC3C(=O)NC4C(=O)NC(C(=O)NC(C(=O)O)c5cc(O)cc(O)c5-c5cc4ccc5O)C(O)c4ccc(c(Cl)c4)Oc4cc3cc(c4OC3OC(CO)C(O)C(O)C3OC3CC(C)(NCc4ccc(-c5ccc(Cl)cc5)cc4)C(O)C(C)O3)Oc3ccc(cc3Cl)C2O)cc1 (stereo not drawn) [Compound 267]
zone score, E. faecium ATCC 49624 (E. faceium (ATCC 49624); [3]): 2 | zone score, S. epidermidis ATCC 12228 [1, 3]: 2

CC1OC(OC2C(Oc3c4cc5cc3Oc3ccc(cc3Cl)C(O)C3NC(=O)C(NC(=O)C5NC(=O)C(CC(N)=O)NC(=O)C(NC(=O)CNC(=O)CN)C(O)c5ccc(c(Cl)c5)O4)c4ccc(O)c(c4)-c4c(O)cc(O)cc4C(C(=O)O)NC3=O)OC(CO)C(O)C2O)CC(C)(NCc2ccc(-c3ccc(Cl)cc3)cc2)C1O (stereo not drawn) [Compound 68]
zone score, E. faecium ATCC 49624 (E. faceium (ATCC 49624); [2]): 2 | MIC E. faecium ATCC 49624 (E. faecium ATCC 49624): 0.39 µg/mL | MIC S. aureus ATCC 29213 (S aureus ATCC 29213): 0.78 µg/mL | MIC S. aureus ATCC 33591 (S. Aureus ATCC 33591): 0.78 µg/mL

CC(OC(C)(C)C)C(N)C(=O)NC1C(=O)NC(CC(N)=O)C(=O)NC2C(=O)NC3C(=O)NC(C(=O)NC(C(=O)O)c4cc(O)cc(O)c4-c4cc3ccc4O)C(O)c3ccc(c(Cl)c3)Oc3cc2cc(c3OC2OC(CO)C(O)C(O)C2OC2CC(C)(NCc3ccc(-c4ccc(Cl)cc4)cc3)C(O)C(C)O2)Oc2ccc(cc2Cl)C1O (stereo not drawn) [Compound 344]
MIC E. faecium ATCC 49624 (E. faecium ATCC 49624): 0.78 µg/mL | MIC E. faecium CL 4931 (E. faecium CL 4931): 25 µg/mL

CC1OC(OC2C(Oc3c4cc5cc3Oc3ccc(cc3Cl)C(O)C3NC(=O)C(NC(=O)C5NC(=O)C(CC(N)=O)NC(=O)C(NC(=O)C(N)CSCc5ccccc5)C(O)c5ccc(c(Cl)c5)O4)c4ccc(O)c(c4)-c4c(O)cc(O)cc4C(C(=O)O)NC3=O)OC(CO)C(O)C2O)CC(C)(NCc2ccc(-c3ccc(Cl)cc3)cc2)C1O (stereo not drawn) [Compound 332]
MIC E. faecium CL 4931 (E. faecium CL 4931): 25 µg/mL

CC(C)CC(N)C(=O)NC1C(=O)NC(CC(N)=O)C(=O)NC2C(=O)NC3C(=O)NC(C(=O)NC(C(=O)O)c4cc(O)cc(O)c4-c4cc3ccc4O)C(O)c3ccc(c(Cl)c3)Oc3cc2cc(c3OC2OC(CO)C(O)C(O)C2OC2CC(C)(NCc3ccc(-c4ccc(Cl)cc4)cc3)C(O)C(C)O2)Oc2ccc(cc2Cl)C1O (stereo not drawn) [Compound 38]
zone score, E. faecium ATCC 49624 (E. faceium (ATCC 49624); [2]): 2 | zone score, S. aureus ATCC 29213 (S. aureus (ATCC 29213); [2]): 2 | MIC E. faecium ATCC 49624 (E. faecium ATCC 49624): 0.78 µg/mL | MIC S. aureus ATCC 29213 (S aureus ATCC 29213): 0.78 µg/mL | MIC S. aureus ATCC 33591 (S. Aureus ATCC 33591): 0.78 µg/mL
